Source: article PMC2989343 (Bioorganic & medicinal chemistry, 2010)

Tests used:
[1] = molecular target: human acetylcholinesterase (AChE, EC 3.1.1.7) (Homo sapiens, UniProt P22303); experiment: Inhibition of freshly prepared human erythrocyte AChE
[2] = Observation for acute cholinergically-mediated adverse effects in rat; details: anesthetized rat, 10 mg/kg i.p.
[3] = molecular target: human butyrylcholinesterase (BChE, EC 3.1.1.8) (Homo sapiens, UniProt P06276); experiment: Inhibition of freshly prepared human plasma BChE; type: biochemical; details: from 60 to 18,000 nM
Chain of human butyrylcholinesterase (BChE, EC 3.1.1.8) (P06276 29-602): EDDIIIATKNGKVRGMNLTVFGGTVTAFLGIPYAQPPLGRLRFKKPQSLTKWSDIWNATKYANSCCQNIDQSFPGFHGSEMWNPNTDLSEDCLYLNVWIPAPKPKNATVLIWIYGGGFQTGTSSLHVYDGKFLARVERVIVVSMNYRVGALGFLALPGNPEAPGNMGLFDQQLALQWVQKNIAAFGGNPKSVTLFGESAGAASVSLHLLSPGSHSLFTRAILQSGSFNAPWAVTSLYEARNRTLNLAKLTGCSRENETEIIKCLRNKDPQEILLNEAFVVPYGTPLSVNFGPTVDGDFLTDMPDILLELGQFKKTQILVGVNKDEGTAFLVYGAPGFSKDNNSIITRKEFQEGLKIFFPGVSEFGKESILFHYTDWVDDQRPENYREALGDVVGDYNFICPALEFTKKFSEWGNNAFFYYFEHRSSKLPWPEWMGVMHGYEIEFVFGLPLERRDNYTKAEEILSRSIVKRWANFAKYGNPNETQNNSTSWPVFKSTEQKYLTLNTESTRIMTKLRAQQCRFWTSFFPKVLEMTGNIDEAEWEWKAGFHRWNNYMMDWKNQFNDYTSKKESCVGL

[4] = system: cholinesterase; details: cited from earlier work

Chain of human acetylcholinesterase (AChE, EC 3.1.1.7) (P22303 32-617 isoform P22303-2 limits assumed): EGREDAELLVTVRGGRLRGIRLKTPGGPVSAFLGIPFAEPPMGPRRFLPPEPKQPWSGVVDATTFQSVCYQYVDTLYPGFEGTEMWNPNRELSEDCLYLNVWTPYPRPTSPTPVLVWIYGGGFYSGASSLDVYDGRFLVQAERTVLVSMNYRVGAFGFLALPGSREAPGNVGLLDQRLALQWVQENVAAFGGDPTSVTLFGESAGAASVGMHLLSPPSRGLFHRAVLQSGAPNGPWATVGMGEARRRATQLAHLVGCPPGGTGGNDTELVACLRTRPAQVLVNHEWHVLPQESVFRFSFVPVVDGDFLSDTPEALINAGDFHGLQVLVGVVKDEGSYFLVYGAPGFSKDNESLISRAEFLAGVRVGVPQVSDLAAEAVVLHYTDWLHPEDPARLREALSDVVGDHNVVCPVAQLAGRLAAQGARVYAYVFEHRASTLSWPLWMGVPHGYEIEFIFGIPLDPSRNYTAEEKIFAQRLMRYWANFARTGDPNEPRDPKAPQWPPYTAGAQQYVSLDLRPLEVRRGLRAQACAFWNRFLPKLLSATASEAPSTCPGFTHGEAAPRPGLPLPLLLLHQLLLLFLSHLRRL

## C[n+]1cccc(OC(=O)Nc2ccccc2)c1.[Br-] [Compound 8, N-Phenylcarbamate of 3-hydroxy-1-methylpyridinium bromide]
[1]; human AChE, versus pyridostigmine (4)
  AChE inhibitory activity (in words): entire loss of AChE activity

## CC(C)c1ccc(NC(=O)Oc2ccc3c(c2)[C@]2(C)CC[N+](C)(C)C2N3C)cc1.[Br-] (stereo partly drawn) [Compound 16, N(1)-Methylammonium bromide of (−)-cymserine]
[2]
  central (tremor) or peripheral (lacrimation and salivation) cholinergically-mediated adverse effects: No central (tremor) or peripheral (lacrimation and salivation) cholinergically-mediated adverse effects were evident

## COS(=O)(=O)[O-].C[N+](C)(C)c1cccc(OC(=O)Nc2ccccc2)c1 [Compound 6, N-Phenylcarbamate of 3-phenol-1-trimethylammonium methylsulfate]
[3]
  fold decline of BChE IC50 value relative to neostigmine (3): 300 fold

## CNC(=O)Oc1ccc2c(c1)[C@]1(C)CCN(C)[C@@H]1N2C [Compound 9, (−)-Physostigmine]
[4]
  human pharmacodynamic half-life (T1/2): 30 min

## O=C(Nc1ccccc1)Oc1cccnc1 [Compound 7, N-Phenylcarbamate of 3-hydroxypyridine]
[1]; given in words only, no ratio
  Selectivity A/B or B/A: None
